The text below walks through data of PMC11923649, “Novel C-2 Aromatic Heterocycle-Substituted Triterpenoids Inhibit Hedgehog Signaling in GLI1 Overexpression Cancer Cells” (ACS Omega, 2025).

Molecules are shown by their SMILES.

The test system of series [1] is BJ human skin fibroblasts. The experiment in a line: MTS cytotoxicity assay, 72 h, BJ fibroblasts. The series is classed as cell-based. The following applies: Homo sapiens, Skin fibroblast, normal fibroblasts. The method in brief: (§1)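 Treatment ran 72 h at 37 °C under 5% CO2, starting the day after plating, across 50–0.0975 μmol/L (dilution factor 2). Metabolic conversion of MTS was read at 490 nm to obtain IC50.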
For orientation: Tetrazolium dyes change colour on reduction, which living cells bring about.

For series [2], the system named is HCT116 p53–/–. The experiment in a line: MTS cytotoxicity assay, 72 h, HCT116 p53–/–. The series is classed as cell-based. The following applies: Homo sapiens, HCT-116, 72 h. In short, it runs like this:
as §1

Series [3] relates to DU-145 (prostate cancer). The experiment in a line: MTS cytotoxicity assay, 72 h, DU-145. The series is classed as cell-based, human. The note with it: Homo sapiens, DU-145, 72 h, Table 1. In short, it runs like this:
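MTS read-out (A490 after 1–4 h with MTS/PMS) following 72 h continuous compound treatment. Concentrations spanned 50–0.0975 μmol/L in twofold steps; IC50 values calculated from the curves.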

For series [4], the system named is CEM-DNR. The experiment in a line: MTS cytotoxicity assay, 72 h, CEM-DNR. The series is classed as cell-based. The note with it: Homo sapiens.
The nature of series [5]: Microsomal stability, human liver microsomes with NADPH. The series is classed as in vitro ADME. The note with it: for Category of Intrinsic clearence: calculated from microsomal stability, category per ref 39; for Microsomal stability % Compound remaining 15 min / Microsomal stability % Compound remaining 30 min / Microsomal stability % Compound remaining 60 min: human liver microsomes, NADPH. Here is the method: Data from a plasma protein binding study can inform about distribution into tissues of the body and reduction in the amount of drug available to be metabolized or cleared from the body. The measurement of plasma protein binding was performed using a Rapid Equilibrium Dialysis device; 11a and 11b compounds reported a percent of fraction bound around 90%. For the microsomal stability assay, human liver microsomes and NADPH cofactor were used to assess phase I oxidation by cytochrome P450 and flavin monooxygenases. The intrinsic clearance calculated from the microsomal stability assay indicated the medium category for both derivatives (Table 3).

Series [6] has as its system A549 (lung adenocarcinoma). The experiment in a line: MTS cytotoxicity assay, 72 h, A549. The series is classed as cell-based. The following applies: Homo sapiens, A549, 72 h. The method in brief:
as §1

For the compound `C=C(C)[C@@H]1CC[C@]2(C(=O)O)CC[C@]3(C)C(CCC4[C@@]5(C)C=C(c6ccco6)C(=O)C(C)(C)C5CC[C@]43C)C12` (some centres unmarked) [Compound 11a, 2-(Furan-2-yl)-3-oxolupa-1,20(29)-dien-28-oic acid], the IC50 (as a rule, the concentration that gives 50% inhibition) in series [1] (Table 1) was 39 µM; in series [1] (full Table S1), 39.1 µM; in series [2] (Table 1) it was 12 µM; in series [2] (full Table S1) it was 12.4 µM; in series [3], 7.9 µM; in series [4] (Table 1), 15 µM. The IC50 in series [4] (full Table S1) is 15.3 µM; in series [6] (Table 1), 12 µM; in series [6] (full Table S1) it was 12.1 µM. In series [5], the “Category of Intrinsic clearence” value is reported as “Medium”. Besides, in series [5], the “Microsomal stability % Compound remaining 15 min” value is given as 88%. Besides, the “Microsomal stability % Compound remaining 30 min” value in series [5] turned out to be 72%. Moreover, the “Microsomal stability % Compound remaining 60 min” value in series [5] is reported as 52%.

`C=C(C)[C@@H]1CC[C@]2(C(=O)O)CC[C@]3(C)C(CCC4[C@@]5(C)C=C(c6ccoc6)C(=O)C(C)(C)C5CC[C@]43C)C12` (some centres unmarked) [Compound 11b, 2-(Furan-3-yl)-3-oxolupa-1,20(29)-dien-28-oic acid]: the IC50 in series [1] (Table 1) is 37 µM; in series [1] (full Table S1) it was 36.6 µM; in series [2] (Table 1), 14 µM; in series [2] (full Table S1) it was 13.5 µM; in series [3] it was 5.7 µM; in series [4] (Table 1), 22 µM. The half-inhibitory concentration (IC50) was 21.8 µM in series [4] (full Table S1), 12 µM in series [6] (Table 1) and 12.1 µM in series [6] (full Table S1). For the same compound, the “Category of Intrinsic clearence” value in series [5] was “Medium”. In addition, the “Microsomal stability % Compound remaining 15 min” value in series [5] amounted to 84%. In addition, the “Microsomal stability % Compound remaining 30 min” value in series [5] is 69%. In series [5], the “Microsomal stability % Compound remaining 60 min” value stood at 51%.
